# Test results reported in US9808003B2, “Herbicidally active 2-(substituted-phenyl)-cyclopentane-1,3-dione compounds and derivatives thereof” (Syngenta Limited, priority 2013, dated 2017).
# Read-outs that look alike come from different tables or passages of the source.
# Tests used:
# Format in all cases: in vivo
# [1] = system: Setaria viridis (SETVI); experiment: Test 1B glasshouse assay, post-emergence herbicidal activity against grassy weeds; conditions: 14 DAA
# Method in brief: (§1)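 Post-emergence spray, 14-day-old plants, glasshouse 22/16 °C day/night, 16 h light, 65% humidity. Test herbicide typically 60, 90 or 120 g/ha; cloquintocet-mexyl safener 50 g/ha optional at 60, included at 90/120. Scored visually 14 DAA, 0–100% damage, 2 reps averaged.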
# [2] = system: Poa annua (POAAN); experiment: as above; conditions: 14 DAA
# Method in brief: as §1
# [3] = system: Avena fatua (AVEFA); experiment: as above; conditions: 14 DAA
# Method in brief: as §1
# [4] = system: Alopecurus myosuroides (ALOMY); experiment: as above; conditions: 14 DAA
# Method in brief: as §1
# [5] = system: Lolium multiflorum (LOLMU); experiment: as above; conditions: 14 DAA
# Method in brief: as §1
# [6] = system: Echinochloa crus-galli (ECHCG); experiment: Test 1A glasshouse assay, post-emergence herbicidal activity; conditions: Echinochloa crus-galli, 312 h, read-out: Post-emergence Herbicidal Activity (% Phytotoxicity) ECHCG
# Method in brief: (§2)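 Read-out is visual percent phytotoxicity 13 days post-spray, 100% meaning total plant damage and 0% none. Seedlings were treated after 8 days' glasshouse cultivation with an aqueous spray of active ingredient in acetone/water 50:50 plus 0.5% Tween 20.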
# [7] = system: Lolium perenne (LOLPE); experiment: as above; conditions: Lolium perenne, 312 h, read-out: Post-emergence Herbicidal Activity (% Phytotoxicity) LOLPE
# Method in brief: as §2
# [8] = system: Avena fatua (AVEFA); experiment: as above; conditions: Avena fatua, 312 h, read-out: Post-emergence Herbicidal Activity (% Phytotoxicity) AVEFA
# Method in brief: as §2
# [9] = system: Alopecurus myosuroides (ALOMY); experiment: as above; conditions: Alopecurus myosuroides, 312 h, read-out: Post-emergence Herbicidal Activity (% Phytotoxicity) ALOMY
# Method in brief: as §2
# [10] = system: Spring Wheat “Freya”; experiment: Test 1B glasshouse assay, post-emergence herbicidal activity against cereal crops
# [11] = system: Echinochloa crus-galli (ECHCG); experiment: Test 1A glasshouse assay, pre-emergence herbicidal activity; conditions: 312 h, read-out: Pre-emergence herbicidal activity (% phytotoxicity) ECHCG
# Method: (§3) Seeds of a variety of test species were sown in standard soil in pots. After cultivation for one day (pre-emergence) or after 8 days cultivation (post-emergence) under controlled conditions in a glasshouse (at 24/16° C., day/night; 14 hours light; 65% humidity), the plants were sprayed with an aqueous spray solution derived from the formulation of the technical active ingredient in acetone/water (50:50) solution containing 0.5% Tween 20 (polyoxyethelyene sorbitan monolaurate, CAS RN 9005-64-5). The test plants were then grown under controlled conditions in a glasshouse (at 24/16° C., day/night; 14 hours light; 65% humidity) and watered twice daily. 13 days after application of the test herbicide, for pre- and post-emergence, the test was evaluated visually for percentage phytotoxicity to the plant (where 100%=total damage to plant; 0%=no damage to plant).
# (§4) Test plants: Lolium perenne (LOLPE), Alopecurus myosuroides (ALOMY), Echinochloa crus-galli (ECHCG), and Avena fatua (AVEFA); these are all grassy monocotyledonous weeds.
# [12] = system: Lolium perenne (LOLPE); experiment: as above; conditions: 312 h, read-out: Pre-emergence herbicidal activity (% phytotoxicity) LOLPE
# Method: as §3, §4
# [13] = system: Avena fatua (AVEFA); experiment: as above; conditions: 312 h, read-out: Pre-emergence herbicidal activity (% phytotoxicity) AVEFA
# Method: as §3, §4
# [14] = system: Alopecurus myosuroides (ALOMY); experiment: as above; conditions: 312 h, read-out: Pre-emergence herbicidal activity (% phytotoxicity) ALOMY
# Method: as §3, §4
# [15] = system: Spring Barley “Harrington”; experiment: Test 1B glasshouse assay, post-emergence herbicidal activity against cereal crops; conditions: for Post-emergence herbicidal activity against cereal crops, percentage phytotoxicity, Spring Barley “Harrington”: 14 DAA
# Method in brief: (§5)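 Technical compound in IF50 with acetone, diluted into 0.5% v/v Adigor, sprayed post-emergence on 14-day glasshouse plants (22/16 °C, 16 h light, 65% humidity), typically at 60, 90 or 120 g/ha, with or without 50 g/ha cloquintocet-mexyl safener. Phytotoxicity scored visually 14 DAA (0–100%), mean of two replicates.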
# [16] = system: Winter Barley “Suzuka”; experiment: as above; conditions: for Post-emergence herbicidal activity against cereal crops, percentage phytotoxicity, Winter Barley “Suzuka”: 14 DAA
# Method in brief: as §5
# [17] = system: Winter Wheat “Hereward”; experiment: as above; conditions: for Post-emergence herbicidal activity against cereal crops, percentage phytotoxicity, Winter Wheat “Hereward”: 14 DAA
# Method in brief: as §5
# [18] = system: Spring Wheat “Teal”; experiment: as above; conditions: 14 DAA
# Method in brief: as §5
# [19] = 30 g/ha herbicide, 50 g/ha cloquintocet-mexyl
# [20] = 60 g/ha herbicide, 0 g/ha cloquintocet-mexyl
# [21] = 60 g/ha herbicide, 50 g/ha cloquintocet-mexyl
# [22] = application rate 250 g/ha, 13 days after application, visual (100%=total damage; 0%=no damage)
# [23] = herbicide 30 g/ha, cloquintocet-mexyl 50 g/ha
# [24] = herbicide 60 g/ha, cloquintocet-mexyl 0 g/ha
# [25] = herbicide 60 g/ha, cloquintocet-mexyl 50 g/ha
# [26] = 250 g/ha, 13 days after application
Structure (SMILES),"Post-emergence herbicidal activity, percentage phytotoxicity, SETVI [1, 19] [%]","Post-emergence herbicidal activity, percentage phytotoxicity, SETVI [1, 20] [%]","Post-emergence herbicidal activity, percentage phytotoxicity, SETVI [1, 21] [%]","Post-emergence herbicidal activity, percentage phytotoxicity, POAAN [2, 19] [%]","Post-emergence herbicidal activity, percentage phytotoxicity, POAAN [2, 20] [%]","Post-emergence herbicidal activity, percentage phytotoxicity, POAAN [2, 21] [%]","Post-emergence herbicidal activity, percentage phytotoxicity, AVEFA [3, 19] [%]","Post-emergence herbicidal activity, percentage phytotoxicity, AVEFA [3, 20] [%]","Post-emergence herbicidal activity, percentage phytotoxicity, AVEFA [3, 21] [%]","Post-emergence herbicidal activity, percentage phytotoxicity, ALOMY [4, 19] [%]","Post-emergence herbicidal activity, percentage phytotoxicity, ALOMY [4, 20] [%]","Post-emergence herbicidal activity, percentage phytotoxicity, ALOMY [4, 21] [%]","Post-emergence herbicidal activity, percentage phytotoxicity, LOLMU [5, 19] [%]","Post-emergence herbicidal activity, percentage phytotoxicity, LOLMU [5, 20] [%]","Post-emergence herbicidal activity, percentage phytotoxicity, LOLMU [5, 21] [%]","pest or weed control at 250 g/ha [6, 22] [%]","pest or weed control at 250 g/ha [7, 22] [%]","pest or weed control at 250 g/ha [8, 22] [%]","pest or weed control at 250 g/ha [9, 22] [%]","inhibition at 250 g/ha [11, 26] [%]",other results
Cc1cc(C)c(C2C(=O)CC(CCNC(=O)c3cc(Cl)ccn3)C2=O)c(C)c1 (racemic) [Compound A23],95,99,99,0,0,0,13,80,70,28,75,78,48,90,83,100,90,90,90,100,"Percentage Phytotoxicity Spring Wheat “Freya” [10, 23]: 5%; Percentage Phytotoxicity Spring Wheat “Freya” [10, 24]: 63%; Percentage Phytotoxicity Spring Wheat “Freya” [10, 25]: 7%; inhibition at 250 g/ha [12, 26]: 100%; inhibition at 250 g/ha [13, 26]: 80%; inhibition at 250 g/ha [14, 26]: 90%; Percentage Phytotoxicity Spring Barley “Harrington” [15, 23]: 1%; Percentage Phytotoxicity Spring Barley “Harrington” [15, 24]: 75%; Percentage Phytotoxicity Spring Barley “Harrington” [15, 25]: 5%; Percentage Phytotoxicity Winter Barley “Suzuka” [16, 23]: 0%; Percentage Phytotoxicity Winter Barley “Suzuka” [16, 24]: 70%; Percentage Phytotoxicity Winter Barley “Suzuka” [16, 25]: 15%; Percentage Phytotoxicity Winter Wheat “Hereward” [17, 23]: 0%; Percentage Phytotoxicity Winter Wheat “Hereward” [17, 24]: 68%; Percentage Phytotoxicity Winter Wheat “Hereward” [17, 25]: 0%"
"Cc1cc(-n2cc(Cl)cn2)cc(C)c1C1C(=O)CC(CCNC(=O)c2ccccn2)C1=O (racemic) [Compound A34, N-[2-[3-[4-(4-chloropyrazol-1-yl)-2,6-dimethyl-phenyl]-2,4-dioxo-cyclopentyl]ethyl]pyridine-2-carboxamide]",–,80,85,–,78,75,–,100,100,–,65,73,–,83,90,–,–,–,–,–,"pest or weed control at 250 g/ha [6]: 100%; pest or weed control at 250 g/ha [7]: 100%; pest or weed control at 250 g/ha [8]: 100%; pest or weed control at 250 g/ha [9]: 90%; inhibition at 250 g/ha [11]: 100%; inhibition at 250 g/ha [12]: 100%; inhibition at 250 g/ha [13]: 100%; inhibition at 250 g/ha [14]: 90%; Post-emergence herbicidal activity against cereal crops, percentage phytotoxicity, Spring Barley “Harrington” [15, 20]: 83%; Post-emergence herbicidal activity against cereal crops, percentage phytotoxicity, Spring Barley “Harrington” [15, 21]: 33%; Post-emergence herbicidal activity against cereal crops, percentage phytotoxicity, Winter Barley “Suzuka” [16, 20]: 83%; Post-emergence herbicidal activity against cereal crops, percentage phytotoxicity, Winter Barley “Suzuka” [16, 21]: 38%; Post-emergence herbicidal activity against cereal crops, percentage phytotoxicity, Winter Wheat “Hereward” [17, 20]: 20%; Post-emergence herbicidal activity against cereal crops, percentage phytotoxicity, Winter Wheat “Hereward” [17, 21]: 5%; Post-emergence herbicidal activity against cereal crops, percentage phytotoxicity, Spring Wheat “Teal” [18, 20]: 43%; Post-emergence herbicidal activity against cereal crops, percentage phytotoxicity, Spring Wheat “Teal” [18, 21]: 10%"
"CCc1cc(-n2cc(Cl)cn2)cc(C)c1C1C(=O)CC(CCNC(=O)c2ccccn2)C1=O (stereo not drawn) [Compound A87, N-[2-[3-[4-(4-chloropyrazol-1-yl)-2-ethyl-6-methyl-phenyl]-2,4-dioxo-cyclopentyl]ethyl]pyridine-2-carboxamide]",73,93,95,75,83,83,100,100,100,70,97,95,100,100,100,100,100,100,100,100,"inhibition at 250 g/ha [12, 26]: 100%; inhibition at 250 g/ha [13, 26]: 90%; inhibition at 250 g/ha [14, 26]: 100%; Post-emergence herbicidal activity against cereal crops, percentage phytotoxicity, Spring Barley “Harrington” [15, 19]: 0%; Post-emergence herbicidal activity against cereal crops, percentage phytotoxicity, Spring Barley “Harrington” [15, 20]: 73%; Post-emergence herbicidal activity against cereal crops, percentage phytotoxicity, Spring Barley “Harrington” [15, 21]: 60%; Post-emergence herbicidal activity against cereal crops, percentage phytotoxicity, Winter Barley “Suzuka” [16, 19]: 3%; Post-emergence herbicidal activity against cereal crops, percentage phytotoxicity, Winter Barley “Suzuka” [16, 20]: 83%; Post-emergence herbicidal activity against cereal crops, percentage phytotoxicity, Winter Barley “Suzuka” [16, 21]: 60%; Post-emergence herbicidal activity against cereal crops, percentage phytotoxicity, Winter Wheat “Hereward” [17, 19]: 23%; Post-emergence herbicidal activity against cereal crops, percentage phytotoxicity, Winter Wheat “Hereward” [17, 20]: 43%; Post-emergence herbicidal activity against cereal crops, percentage phytotoxicity, Winter Wheat “Hereward” [17, 21]: 33%; Post-emergence herbicidal activity against cereal crops, percentage phytotoxicity, Spring Wheat “Teal” [18, 19]: 18%; Post-emergence herbicidal activity against cereal crops, percentage phytotoxicity, Spring Wheat “Teal” [18, 20]: 48%; Post-emergence herbicidal activity against cereal crops, percentage phytotoxicity, Spring Wheat “Teal” [18, 21]: 38%"
